Laboratory results as given in ChEMBL document CHEMBL1201862, “PubChem BioAssay data set” (2004).
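Compound exposure: 48 hours, 5 concentrations, 96-well plates. Abbreviation: GI50, concentration required for 50% inhibition of growth.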 Active and inactive are the calls of the source. No stated cut-off is given here; in the data, active = GI50 up to about 1.1 µM and inactive = higher.

Assays:
Assay in all cases: inhibition of tumour cell growth, NCI panel, 48 h
[1] = system: OVCAR-5
[2] = system: OVCAR-4
[3] = system: SR
[4] = system: SW-620
[5] = system: SN12C
[6] = system: HL-60
[7] = system: A498
[8] = system: CAKI-1
[9] = system: K562
[10] = system: DMS-114
[11] = system: OVCAR-8
[12] = system: HT-29
[13] = system: HCC 2998
[14] = system: UACC-62
[15] = system: ACHN
[16] = system: NCI-H23
[17] = system: UACC-257
[18] = system: SNB-75
[19] = system: RXF 393

Measured: GI50

Cc1cc(C)nc(Nc2nc3cc([N+](=O)[O-])ccc3[nH]2)n1
inactive: [1] > 100 µM | [2] > 100 µM | [3] > 100 µM | [4] > 100 µM | [5] > 100 µM | [6] > 100 µM | [7] > 100 µM | [8] > 100 µM | [9] > 100 µM | [10] > 100 µM | [11] > 100 µM | [12] > 100 µM | [13] > 100 µM | [14] > 100 µM | [15] > 100 µM | [16] > 100 µM | [17] > 100 µM

N#CCCN(c1ccc(/C=N/c2ccccc2)cc1)S(=O)(=O)c1ccccc1
inactive: [2] > 100 µM | [3] > 100 µM | [18] > 100 µM | [4] > 100 µM | [5] > 100 µM | [6] 31.1 µM | [7] > 100 µM | [8] > 100 µM | [9] 2.97 µM | [10] > 100 µM | [11] > 100 µM | [12] 17 µM | [13] 5.22 µM | [14] 3.27 µM | [16] > 100 µM | [17] > 100 µM

CCCCNC(=NC#N)NCCCC
inactive: [1] > 100 µM | [2] > 100 µM | [3] 78.7 µM | [18] > 100 µM | [4] 21.3 µM | [5] > 100 µM | [7] > 100 µM | [8] > 100 µM | [9] > 100 µM | [10] 55.6 µM | [11] > 100 µM | [19] 34.5 µM | [12] > 100 µM | [13] > 100 µM | [14] > 100 µM | [15] > 100 µM | [16] > 100 µM | [17] > 100 µM

O=C(/C=N/c1ccccc1[S-])c1ccco1.O=C(/C=N/c1ccccc1[S-])c1ccco1.[Zn+2]
inactive: [1] 16.8 µM | [3] 6.58 µM | [18] 8.28 µM | [4] 10.9 µM | [5] 10 µM | [6] 3.56 µM | [7] 21.5 µM | [8] 10 µM | [9] 18.9 µM | [10] 21.2 µM | [11] 6.37 µM | [12] 18.7 µM | [13] 10 µM | [14] 15.6 µM | [15] 5.46 µM | [16] 5.41 µM | [17] 12.5 µM
